Two compounds from patent US20230219886A1, “NOVEL SELENO-NSAID ANALOGS AND USES THEREOF” (THE PENN STATE RESEARCH FOUNDATION, priority 2020, published 2023) can be followed below.

Entries after “also recorded” stand apart in the source; their conditions may differ.

Data set [1] concerns BxPC3 cells. As to the kind of experiment: MTT assay, pancreatic ductal adenocarcinoma cells BxPC3. The format is cell-based. The method, then: (§1) The cytotoxic response of 6a on pancreatic ductal adenocarcinoma cell lines (Panc-1, MIA PaCa-2 and BxPC3) was evaluated using MTT assay. […] To determine whether the in vitro efficacy of 6a translates to in vivo models, we performed a pilot tumor inhibition study in xenograft mouse model using BxPC3 cells. Athymic nude mice were subcutaneously injected with BxPC3 cells. After two weeks, mice were injected intraperitoneally with vehicle DMSO (control) or 6a (three times a week at a dose of 4 mg/Kg in 100 μL of DMSO). Tumor size and animal weights were measured twice a week.
A general note: Tetrazolium assays rely on reduction of a dye to a coloured formazan, in cell work by metabolically active cells.

Data set [2] concerns HT-29 cells. As to the kind of experiment: Cell cycle analysis by flow cytometry. The note with it: HT-29, 24 h; for population of cells in the S-phase: compared with vehicle; for population of cells in G1 and G2/M phases: compared with vehicle (DMSO). Format: cell-based, human. As to the method:
Cell Cycle Analysis. Cell cycle analyses were determined by following a flow cytometry protocol as described earlier (82). In brief, HT-29 cells were serum deprived for 72 hours to get them synchronized. At the end of 72 hours, cells were supplied with fresh medium or fresh medium with 1, 2.5, 5 and 10 μM of 1a and 6a for 24 hours. After each time point, the cells were fixed in ice cold 70% ethanol. Fixed cells were washed with 1×PBS and suspended in PI staining solution. PI staining solution was made by adding 0.1% (v/v) triton X-100, 20 mg of DNase-free RNase A, and 2 mg of PI in 100 mL of PBS. After staining for 15 min, the cells were analyzed by flow cytometer (Coulter Epics XL, Beckman Coulter).
Compounds 1a and 6a inhibited CRC cell growth by inducing cell cycle arrest. We investigated the effect 1a and 6a on the cell cycle by flow cytometry.
(A flow cytometer gives signals particle by particle.)

Data set [3] relates to ME: LOX IMVI. As to the kind of experiment: NCI-60 dose-response, LOX IMVI. The note with it: 48 h. Format: cell-based, human. The source says:
(§2) NCI-60 Analysis. 1a and 6a were submitted to National Cancer Institute's (NCI) Developmental Therapeutics Program (DTP) where the cytotoxicity profile was investigated across their 60 human cancer cell line panel according to the protocol available on multiple sources (71-73, 83). The COMPARE algorithm (73), was utilized to evaluate the activity profile of 6a in comparison to those of known cytotoxins established in marketed drugs and standard agent data sets in order to correlate plausible modes of action.
(§3) NCI-60 analysis. Compounds 1a, 5a and 6a were submitted to the National Cancer Institute's (NCI) Developmental Therapeutics Program (DTP). NCI-60 program consists in a panel of 60 human cancer cell lines from a variety of cancers, including refractory tumors such as lung, ovarian, CRC, breast, brain and renal cancers, and melanomas together with more treatable cancers such as leukemias (71). 1a [NSC: 803071], 5a [NSC: 820332] and 6a [NSC: 811013] were initially screened at one dose (10 μM) at 48 h. Then, NCI selected only compound 6a to perform dose-response characterization (72).

Data set [4] relates to CNS: SF-295. As to the kind of experiment: NCI-60 dose-response, SF-295. The format is cell-based, human. Conditions: SF-295, 48 h.
Source text: as §2, §3

Data set [5] relates to RE: A498. As to the kind of experiment: NCI-60 dose-response, A498. The note with it: A498, 48 h. The format is cell-based, human.
Source text: as §2, §3

The test system of data set [6] is CNS: SF-539. As to the kind of experiment: NCI-60 dose-response, SF-539. The note with it: SF-539, 48 h. The format is cell-based, human.
Source text: as §2, §3

The subject of data set [7] is LC: EKVX. As to the kind of experiment: NCI-60 dose-response, EKVX. Format: cell-based, human. The note with it: 48 h.
Source text: as §2, §3

Data set [8] relates to LC: HOP-62. As to the kind of experiment: NCI-60 dose-response, HOP-62. Format: cell-based, human. Conditions: HOP-62, 48 h.
Source text: as §2, §3

The subject of data set [9] is OV: OVCAR-5. As to the kind of experiment: NCI-60 dose-response, OVCAR-5. Format: cell-based, human. Conditions: OVCAR-5, most resistant cell line.
Source text: as §2, §3

Data set [10] concerns NCI-60 human cancer cell line panel. As to the kind of experiment: NCI-60 dose-response, whole panel. The format is cell-based.
Source text: as §2, §3

In data set [11] the test system is BxPC3 cells. As to the kind of experiment: Subcutaneous xenograft tumor inhibition study in athymic nude mice. Format: in vivo. The method, then:
as §1

The nature of data set [12]: Systemic toxicity in xenograft mice. Format: in vivo. As to the method: as §1
The test system of data set [13] is HT-29 (CRC cells). As to the kind of experiment: NCI-60 one-dose screen, HT-29. The note with it: HT-29, 10 μM, 48 h. Format: cell-based, human.
Source text: as §2, §3

Data set [14] relates to NCI-H226 (non-small cell lung cancer). As to the kind of experiment: NCI-60 one-dose screen, NCI-H226. The format is cell-based, human. Conditions: NCI-H226, 10 μM, 48 h.
Source text: as §2, §3

Setting [15] is: read-out: LC50 (the source's name).
[16] abbreviates: 4 mg/Kg i.p. three times a week.

Regarding `C[Se]C(=O)CC1=C(C)/C(=C/c2ccc([S+](C)[O-])cc2)c2ccc(F)cc21` (stereo not drawn) [Compound 6a, Se-methyl (Z)-2-(5-fluoro-2-methyl-1-(4-(methylsulfinyl)benzylidene)-1H-indenyl)ethaneselenoate], in data set [1], half-maximal inhibition (IC50) required 1000 nM. Besides, the “population of cells in the S-phase” value in data set [2] is “drastically reduced”. In addition, the “population of cells in G1 and G2/M phases” value in data set [2] was “increase”. Besides, the GI50 is 14.1 nM in data set [3]; 24.2 nM in data set [4]; 38.8 nM in data set [5]; 105 nM in data set [6]; < 10 nM in data set [7]; < 10 nM in data set [8]. Besides, the concentration for 50% growth inhibition (GI50) is 47 nM in [9]; < 10 nM in data set [10] (in four NSCLS and two CNS cell lines). The LC50 (concentration giving 50% net cell kill) in [3] was 62.1 nM. In addition, the TGI in [3] turned out to be 29.6 nM; in [4], 107 nM; in [5], 184 nM; in data set [6], 275 nM; in [7] it was 10.8 nM; in [8], 155 nM. Besides, in data set [9], the concentration for total growth inhibition (TGI) came to 410 nM. Also, the LC50 in [4] is 386 nM; in data set [8], 941 nM. For the same compound, the CC50 in data set [5] (setting [15]) amounted to 658 nM; in [6] (setting [15]), 718 nM; in data set [7] (setting [15]) it was 861 nM; in [9] (setting [15]) it was 3900 nM. Besides, in [10] (LE:SR, CCRF-CEM, HCT-116, HL60, NCI-H522, MOLT-4), the “cytotoxic activity towards the 6 most sensitive cells of the panel” value is “negligible”. The “activity towards the 6 most resistant cells” value in [10] (TK10, SK-MEL-28, SNB-19, SK-OV-3, NCI-H322M, OVCAR-5) is recorded as “outstanding activity”. Moreover, the TGI values result in data set [10] (in all cell lines, except for seven) is recorded as “below 12 μM”. Moreover, the “reduction of tumor weight as compared to control mice” value in data set [11] (4 mg/Kg i.p. three times a week, 22 days since start of treatment) was found to be 42.9%. Further, the tumor growth entry in data set [11] (4 mg/Kg i.p., three times a week, nude mice xenograft) was “significantly inhibited; also recorded: significantly reduced”. The “alanine aminotransferase (SGPT)” value in [12] (setting [16]) was 19 U/L. In [12] (setting [16]), this compound showed a bilirubin toxicity of 0.40 mg/dL. The blood urea nitrogen in data set [12] (setting [16]) was found to be 23 mg/dL. The “body weight loss as compared to the control mice” value in data set [12] (setting [16]) is given as “did not show any significant weight loss”. Moreover, the systemic toxicity entry in data set [12] (at the dose used (4 mg/Kg)) is on record as “no evidence of systemic toxicity”.
Regarding `C[Se]C(=O)c1ccccc1OC(C)=O` [Compound 1a, 2-((methylselanyl)carbonyl)phenyl acetate], in data set [2], the “population of cells in the S-phase” value was “drastically reduced”; the “population of cells in G1 and G2/M phases” value was “increase”. Also, the “Growth percent (GP)” value in data set [13] is listed as < 12%. Further, the “Growth percent (GP)” value in [14] is given as < 12%.

For orientation: IC50 means the concentration that inhibits the measured activity by half. High values mean weaker potency in that assay, low ones greater potency in that assay. One may read the GI50 as the concentration at which growth is held to half of that of the control. Low readings indicate greater sensitivity of the cells, high ones lower sensitivity of the cells. By TGI is commonly meant the concentration giving total growth inhibition. The low end stands for more potent growth arrest, the high end for less potent growth arrest. A word on the LC50: it is the concentration lethal to half of the exposed cells or organisms.
